Laboratory results as given in patent US20210244735A1, “COMPOSITIONS AND METHODS FOR TREATING MYELOFIBROSIS” (Impact Biomedicines, Inc., priority 2010, published 2021).

Target: human CYP3A4 (Homo sapiens, UniProt P08684)
Experiment: In vitro evaluations of CYP3A4 metabolism and inhibition
Type: in vitro ADME

Chain of human CYP3A4 (P08684 whole entry): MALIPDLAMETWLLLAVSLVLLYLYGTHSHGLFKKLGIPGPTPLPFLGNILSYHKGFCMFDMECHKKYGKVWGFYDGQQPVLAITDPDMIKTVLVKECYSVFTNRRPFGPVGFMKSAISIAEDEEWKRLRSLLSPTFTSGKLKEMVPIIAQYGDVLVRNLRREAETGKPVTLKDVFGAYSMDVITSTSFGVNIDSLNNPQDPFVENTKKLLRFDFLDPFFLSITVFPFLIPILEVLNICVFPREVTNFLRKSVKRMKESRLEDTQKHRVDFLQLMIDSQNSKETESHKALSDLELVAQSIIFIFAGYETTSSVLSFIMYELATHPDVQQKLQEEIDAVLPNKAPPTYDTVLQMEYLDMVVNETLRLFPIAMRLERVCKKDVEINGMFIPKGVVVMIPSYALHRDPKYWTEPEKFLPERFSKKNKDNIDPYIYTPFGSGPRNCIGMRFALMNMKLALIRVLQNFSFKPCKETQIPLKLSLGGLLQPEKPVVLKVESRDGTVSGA

Which results are given for `Cc1cnc(Nc2ccc(OCCN3CCCC3)cc2)nc1Nc1cccc(S(=O)(=O)NC(C)(C)C)c1` [N-tert-butyl-3-[(5-methyl-2-{[4-(2-pyrrolidin-1-ylethoxy)phenyl]amino}pyrimidin-4-yl)amino]benzenesulfonamide]?
CYP3A4 inhibition (in vitro data): inhibits CYP3A4 in a time-dependent fashion; metabolism (in vitro evaluations): metabolized by human CYP3A4
